In experiment [1] the test system is acute visceral pain model in mice. Kind of experiment: acute visceral pain model in mice (acetic acid writhing). The settings on record: n=6.
The subject of experiment [2] is sciatic nerve injured limb (allodynia). Kind of experiment: von Foley hair test (mechanical stimulation) after partial sciatic nerve injury. In kind it is in vivo, C57BL/6 male mice. The settings on record: 2 mg i.p., N=6 per time point. On the procedure:
(§1) Surgical procedures were performed under Halothane (2-3%) anesthesia. Partial sciatic nerve injury was made by tying a tight ligature with 9-0 silk suture around ⅓ to ½ the diameter of the sciatic nerve, as had been described (Malmberg A B and Basbaum A I. Pain 1998; 76:215-222). In mice with sham operation, the sciatic nerve was exposed but not ligated. The mice were subsequently habituated to the test environment for at least 1 hour before thermal test and von Foley hair test. In thermal test, the paw withdrawal latency was determined as an indicator for pain. […], the stimulus intensity was adjusted to give a 10-second withdrawal latency in the normal mouse, while the cutoff in the absence of a response was 20 seconds. The mechanical sensitivity with von Foley hairs was assessed by the up-down paradigm (Chaplan et al, J Neurosci Methods 1994; 53:53-66). The filament for the testing paradigm was chosen to be 0.3-gm.
The same animal model in example 3 was used. The peptide 5 as shown in SEQ ID NO: 5 was tested for its anti-allodynia effects in mice receiving sciatic nerve ligation. Results from the mechanical stimulation (von Foley test) of the sham operated mice and the nerve injured mice were compared in parallel on day 5, 10 and 30 after the surgery.

The test system of experiment [3] is sciatic nerve injured limb (hyperalgesia). Kind of experiment: thermal test (paw withdrawal latency) after partial sciatic nerve injury. In kind it is in vivo, C57BL/6 male mice. The settings on record: 2 mg i.p., N=6; for temperature-induced pain, paw withdrawal latency: injured limb, day 5, 10 and 30 after surgery, vs untreated (DMSO solvent), FIG. 5. On the procedure:
as §1
The peptide 5 as shown in SEQ ID NO: 5 was tested for its anti-hyperalgesia effects in mice receiving sciatic nerve ligation. Results from the thermal test of the sham operated mice and the nerve injured mice were compared in parallel on day 5, 10 and 30 after the surgery.

The next experiment concerns H1N1 viruses. In kind it is cell-based, influenza A virus H1N1. The settings on record: 0.001-10 μM; MDCK monolayer; 5,000 pfu/ml; 3 days; FIG. 7 right panel.
The subject of the next experiment is H5N1 viruses. In kind it is cell-based, influenza A virus H5N1. The settings on record: 0.001-10 μM; MDCK monolayer; 5,000 pfu/ml; 3 days; FIG. 7 left panel.

Take “DEAQETAVSSHEQD ((1)..(14) residues 1-14 of rabbit alpha1-antiproteinase F; listed as Oryctolagus cuniculus) [Peptide 5, fragment (residues 1-14) of rabbit α1-antiproteinase F]”: in experiment [1] (2 mg peptide i.p. 30 min before 1 ml 1% acetic acid i.p., control water alone, FIG. 3), the “onset of the pain induced by intra-peritoneal injection of acetic acid (onset of the 1st writhing)” value was “significant delay in the onset of the pain”. Also, the “total writhing number in 30 minutes after acetic acid injection” value in experiment [1] (2 mg peptide i.p. 30 min before 1 ml 1% acetic acid i.p., control water alone, FIG. 4) was “significant reduction in the total writhing number”; in experiment [1] (2 mg peptide i.p. 30 min before 1 ml 1% acetic acid i.p., control water alone, FIG. 4, listed as peptide 5), “reduced total writhing episodes”. Further, the “p (ANOVA), von Foley hair threshold, untreated vs treated injury-ipsilateral limb” value in experiment [2] (day 5, 10 or 30) is recorded as less than 0.005. The “allodynia, von Foley hair threshold” value in experiment [2] (injured limb, day 5, 10 and 30 after surgery, vs untreated (pure water), FIG. 6, listed as peptide 5) is given as “significantly increase the tolerance to mechanical stimuli”. Besides, the “p (ANOVA), paw withdrawal latency, untreated vs treated injured ipsilateral limb” value in experiment [3] (day 5, 10 or 30) was less than 0.005. In addition, the “temperature-induced pain, paw withdrawal latency” value was “significantly reduced the temperature-induced pain” in experiment [3] and “significantly increase the tolerance to the heat-induced pain” in experiment [3] (listed as peptide 5). Further, the “inhibition of replication of H1N1 viruses in vitro” value in the experiment on H1N1 viruses is recorded as “potent effects in inhibiting the replication”. Further, the “inhibition of replication of H5N1 viruses in vitro” value with H5N1 viruses is “potent effects in inhibiting the replication”.
For `CN1CC[C@]23c4c5ccc(O)c4O[C@H]2[C@@H](O)C=C[C@H]3[C@H]1C5` [morphine, reference compound], the “p, onset of pain, peptide 5 vs this substance” value in experiment [1] (peptides 2 mg, morphine 1 mg i.p., FIG. 3) is greater than 0.05. For the same molecule, the “p, total writhing number in 30 minutes, peptide 5 vs this substance” value in experiment [1] (peptides 2 mg, morphine 1 mg i.p., FIG. 4) was greater than 0.05.
